Article PMC7663645 (Molecules, 2020)

Biological target: T1, MAO-B (Rattus norvegicus, UniProt P19643)
T1 construct: from tissue; host or cells: rat brain (membrane homogenates)
T1 sequence (P19643 1-520): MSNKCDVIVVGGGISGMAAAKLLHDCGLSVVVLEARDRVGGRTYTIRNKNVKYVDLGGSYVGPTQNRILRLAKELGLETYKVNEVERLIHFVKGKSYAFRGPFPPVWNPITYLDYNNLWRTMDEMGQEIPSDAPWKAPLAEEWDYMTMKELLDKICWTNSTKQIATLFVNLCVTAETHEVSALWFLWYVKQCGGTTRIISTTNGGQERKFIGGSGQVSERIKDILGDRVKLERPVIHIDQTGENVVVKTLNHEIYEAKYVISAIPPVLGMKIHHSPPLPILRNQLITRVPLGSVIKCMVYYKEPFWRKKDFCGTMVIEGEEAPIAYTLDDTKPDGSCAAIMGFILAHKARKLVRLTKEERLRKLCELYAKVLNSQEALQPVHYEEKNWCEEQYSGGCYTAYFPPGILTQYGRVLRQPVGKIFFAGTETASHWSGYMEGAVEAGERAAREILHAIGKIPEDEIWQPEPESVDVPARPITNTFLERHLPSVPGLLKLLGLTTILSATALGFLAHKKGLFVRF
Assay: Radioligand competition binding assay with L-[^3H]Deprenyl on rat brain membrane homogenates
Settings: homologous binding experiments, rat brain homogenates
Experimental: The affinity of the synthesized derivatives towards MAO-B was determined in radioligand competition binding assays. […] Non-specific binding was determined in the presence of 10 μM of rasagiline. The reaction was terminated by rapid filtration using Whatman GF/B glass-fiber filters, pre-soaked in 0.3% polyethyleneimine, and a 48-channel harvester (Biomedical Research and Development Laboratories, Gaithersburg, MD, USA) followed by washing four times with ice-cold TRIS-HCl buffer. Filter-bound radioactivity was quantified by liquid scintillation counting. The results represent two single experiments, each performed in triplicate. […] The data were analyzed with GraphPad Prism, Version 4.1 (GraphPad Inc., La Jolla, CA, USA).

Question: For L-[^3H]Deprenyl [reference compound], which Bmax is on record?
Answer: Its Bmax is 2.29 ± 2.08 pmol/mg protein.

Same assay, conditions: read-out: IC50 (MAO-B binding affinity)

Question: With `O=C(c1ccc(F)cc1)N1CCN(C/C=C/c2ccccc2)CC1` [Compound 8, (E)-(4-cinnamylpiperazin-1-yl)(4-fluorophenyl)methanone] as the compound, how does the IC50 read?
Answer: The IC50 was over 10 µM.

Question: With `Fc1cccc(N2CCN(CC=Cc3ccccc3)CC2)n1` [Compound 9, 1-Cinnamyl-4-(6-fluoropyridin-2-yl)piperazine] as the compound, how does the IC50 read?
Answer: Its IC50 is over 10 µM.

Question: With `Fc1ccc(N2CCN(CC=Cc3ccccc3)CC2)cn1` [Compound 10, 1-Cinnamyl-4-(6-fluoropyridin-3-yl)piperazine] as the compound, how does the IC50 read?
Answer: The IC50 was over 10 µM.

Question: Which IC50 does the source give for `Fc1cc(N2CCN(CC=Cc3ccccc3)CC2)ccn1` [Compound 11, 1-Cinnamyl-4-(2-fluoropyridin-4-yl)piperazine] here?
Answer: The IC50 was over 10 µM.

Question: For `Fc1ncccc1N1CCN(CC=Cc2ccccc2)CC1` [Compound 12, 1-Cinnamyl-4-(2-fluoropyridin-3-yl)piperazine], which IC50 is on record?
Answer: The IC50 was over 10 µM.

Question: Which IC50 does the source give for `O=C(c1ccc(F)cc1)N1CCN(C/C=C/c2ccccc2F)CC1` [Compound 13, (E)-(4-Fluorophenyl)(4-(3-(2-fluorophenyl)allyl)piperazin-1-yl)methanone] here?
Answer: The IC50 was over 10 µM.

Question: Which IC50 does the source give for `Fc1cccc(N2CCN(C/C=C/c3ccccc3F)CC2)n1` [Compound 14, (E)-1-(3-(2-Fluorophenyl)allyl)-4-(6-fluoropyridin-2-yl)piperazine] here?
Answer: The IC50 was over 10 µM.

Question: Which IC50 does the source give for `Fc1ccc(N2CCN(C/C=C/c3ccccc3F)CC2)cn1` [Compound 15, (E)-1-(3-(2-Fluorophenyl)allyl)-4-(6-fluoropyridin-3-yl)piperazine] here?
Answer: Its IC50 is over 10 µM.

Question: With `Fc1cc(N2CCN(C/C=C/c3ccccc3F)CC2)ccn1` [Compound 16, (E)-1-(3-(2-Fluorophenyl)allyl)-4-(2-fluoropyridin-4-yl)piperazine] as the compound, how does the IC50 read?
Answer: The IC50 was over 10 µM.

Question: Which IC50 does the source give for `Fc1ccccc1/C=C/CN1CCN(c2cccnc2F)CC1` [Compound 17, (E)-1-(3-(2-Fluorophenyl)allyl)-4-(2-fluoropyridin-3-yl)piperazine] here?
Answer: Its IC50 is over 10 µM.

Tested on: recombinant human MAO-B
Assay: not given
Set-up: method as in earlier work
Settings: cited from earlier work

Question: With L-[^18F]Deprenyl as the compound, how does the IC50 read?
Answer: Its IC50 is 0.227 ± 0.0368 µM.

Tested on: MAO-B
Assay: not given
Set-up: method as in PMID 31060887
Settings: cited from earlier work

Question: Which IC50 does the source give for `COC[C@@H]1CN(c2noc3cc(OCCCCC[18F])ccc23)C(=O)O1` [[^18F]6] here?
Answer: The IC50 was 0.11 µM.
